The values that follow come from patent US20260200911A1, “NOVEL COMPOUNDS” (Neurosterix Pharma Sarl., priority 2022, published 2026).

A word on the IC50: it is the concentration that inhibits the measured activity by half.

T1 sequence (Q14831 35-922 isoform Q14831-2 limits assumed): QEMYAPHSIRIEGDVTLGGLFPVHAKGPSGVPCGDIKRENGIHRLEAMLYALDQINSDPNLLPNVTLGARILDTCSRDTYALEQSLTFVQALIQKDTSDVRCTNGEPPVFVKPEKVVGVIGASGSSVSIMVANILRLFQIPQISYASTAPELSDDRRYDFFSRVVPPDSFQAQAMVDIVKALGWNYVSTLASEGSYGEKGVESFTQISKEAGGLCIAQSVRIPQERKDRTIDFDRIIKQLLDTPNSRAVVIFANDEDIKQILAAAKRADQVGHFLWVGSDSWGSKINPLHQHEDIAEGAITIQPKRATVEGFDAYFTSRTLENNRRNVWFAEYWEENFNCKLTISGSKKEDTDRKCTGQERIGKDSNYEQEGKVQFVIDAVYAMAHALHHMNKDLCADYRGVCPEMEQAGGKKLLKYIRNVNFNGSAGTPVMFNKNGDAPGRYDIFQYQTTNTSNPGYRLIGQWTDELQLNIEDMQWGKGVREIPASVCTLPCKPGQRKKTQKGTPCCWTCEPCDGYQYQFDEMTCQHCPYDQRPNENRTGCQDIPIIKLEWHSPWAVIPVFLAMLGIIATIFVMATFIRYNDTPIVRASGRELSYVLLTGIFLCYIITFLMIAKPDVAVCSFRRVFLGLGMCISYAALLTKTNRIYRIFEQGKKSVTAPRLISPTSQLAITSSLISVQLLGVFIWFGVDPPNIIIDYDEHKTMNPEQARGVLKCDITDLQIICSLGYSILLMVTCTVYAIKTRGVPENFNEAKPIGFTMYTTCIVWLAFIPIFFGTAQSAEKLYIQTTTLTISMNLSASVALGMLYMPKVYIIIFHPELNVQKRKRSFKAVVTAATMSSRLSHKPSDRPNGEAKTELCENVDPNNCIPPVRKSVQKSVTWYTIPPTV

The test addresses T1, human mGlu7 (Homo sapiens, UniProt Q14831).
T1 construct: expressed in transfected cells
The test can be described thus: Fluorescent cell based Ca2+ mobilization assay (FLIPR) on HEK-293 cells expressing human mGlu7. The settings on record: HEK-293 cells expressing hmGlu7; inhibition of EC80 L-AP4 response; mean of at least three independent experiments in duplicate; read-out: Ca^2+ Flux (mean IC50). An excerpt:
mGlu7 Assay on HEK-Expressing Human mGlu7
The cDNA encoding the human metabotropic glutamate 7 receptor (hmGlu7), (accession number NM_181874.2, NCBI Nucleotide database browser), was subcloned into an expression vector containing also the hygromycin resistance gene. In parallel, the cDNA encoding a G protein allowing redirection of the activation signal to intracellular calcium flux was subcloned into a different expression vector containing also the Puromycin resistance gene. Transfection of both these vectors into HEK293 cells with PolyFect reagent (Qiagen) according to supplier's protocol, and hygromycin and puromycin treatment allowed selection of antibiotic resistant cells which had integrated stably one or more copies of the plasmids. Positive cellular clones expressing hmGlu7 were identified in a functional assay measuring changes in calcium fluxes in response to glutamate and L-AP4 or known mGlu7 orthosteric antagonists.
HEK-293 cells expressing hmGlu7 were maintained in media containing DMEM, Fetal Bovine Serum (10%), Glutamax™ (2 mM), penicillin (100 units/mL), streptomycin (100 μg/mL), geneticin (100 μg/mL) and hygromycin-B (40 μg/mL) and puromycin (1 μg/mL) at 37° C. with 5% CO2 in a humidified atmosphere.
Human mGlu7 HEK-293 cells were plated out 24 hours prior to a fluorescent cell-based calcium mobilization assay using FLIPR^384 assay (Molecular Device, Sunnyvale, CA, USA) in black-walled, clear-bottomed, poly-L-ornithine-coated 384-well plates at a density of 25,000 cells/well in a glutamine/glutamate free DMEM medium containing fetal bovine serum (10%), penicillin (100 units/mL), streptomycin (100 μg/mL) and doxycyline (1 μg/ml) at 37° C. with 5% CO2 in a humidified atmosphere.
On the day of the assay, the medium was aspirated and the cells were loaded with a 3 μM solution of Fluo4-AM (LuBioScience, Lucerne, Switzerland) in 0.03% pluronic acid. After 1 hour at 37° C./5% CO2, the non incorporated dye was removed by washing cell plate with the assay buffer. All assays were performed in a pH 7.4 buffered-solution containing 20 mM HEPES, 143 mM NaCl, 6 mM KCl, 1 mM MgSO4, 1 mM CaCl2, 0.125 mM sulfinpyrazone and 0.1% glucose.
After 10 s of basal fluorescence recording, various concentrations of the compounds of the invention were added to the cells. Changes in fluorescence levels were first monitored for 180 s in order to detect any agonist activity of the compounds. Then the cells were stimulated by an EC80 L-AP4 concentration for an additional 110 s in order to measure inhibiting activities of the compounds of the invention. EC80 L-AP4 concentration is the concentration giving 80% of the maximal glutamate response.
The concentration-response curves of L-AP4 or representative compounds of the present invention were generated using the Prism GraphPad software (Graph Pad Inc, San Diego, USA). The curves were fitted to a four-parameter logistic equation:
(Y=Bottom+(Top−Bottom)/(1+10^((Log IC50−X)*Hill Slope)
allowing determination of IC50 values.
The Table 3 below represents the mean IC50 obtained from at least three independent experiments of selected molecules performed in duplicate.
In general terms: Calcium assays in cells follow changes in intracellular calcium, usually with a dye or a luminescent sensor.
As to `Cc1ccc(C2CCc3nn(-c4ccccn4)c(=O)n3C2)c(C)c1` (single isomer, unassigned; (+)) [Compound 1-18, (+)6-(2,4-dimethylphenyl)-2-(pyridin-2-yl)-5,6,7,8-tetrahydro-[1,2,4]triazolo[4,3-a]pyridin-3(2H)-one], the IC50 is below 100 nM.
As for `Cc1ccc(C2CCc3nn(-c4ccccn4)c(=O)n3C2)c(C)c1` (single isomer, unassigned; (-)) [Compound 1-17, (−)6-(2,4-dimethylphenyl)-2-(pyridin-2-yl)-5,6,7,8-tetrahydro-[1,2,4]triazolo[4,3-a]pyridin-3(2H)-one], the IC50 was in the range of 1000 to 10000 nM.
Consider `Cc1ccc(-c2ccc3nn(-c4ccccn4)c(=O)n3c2)c(C)c1` [Compound 1-1, 6-(2,4-dimethylphenyl)-2-(pyridin-2-yl)-[1,2,4]triazolo[4,3-a]pyridin-3(2H)-one], for which the IC50 was below 100 nM.
As for `Cc1ccc(-c2ccc3nn(-c4ncccn4)c(=O)n3c2)c(C)c1` [Compound 1-2, 6-(2,4-dimethylphenyl)-2-(pyrimidin-2-yl)-[1,2,4]triazolo[4,3-a]pyridin-3(2H)-one], the figure is 100 to 1000 nM.
With `Cc1ccc(C2CCc3nn(-c4ccccn4)c(=O)n3C2)c(C)c1` (stereo not shown) [Compound 1-3, 6-(2,4-dimethylphenyl)-2-(pyridin-2-yl)-5,6,7,8-tetrahydro-[1,2,4]triazolo[4,3-a]pyridin-3(2H)-one] the figure was below 100 nM; with `O=c1n(-c2ccccn2)nc2ccc(-c3cccc(N4CCC4)c3)cn12` [Compound 1-4, 6-(3-(azetidin-1-yl)phenyl)-2-(pyridin-2-yl)-[1,2,4]triazolo[4,3-a]pyridin-3(2H)-one], 100 to 1000 nM; with `COc1cccc(-c2ccc3nn(-c4ccccn4)c(=O)n3c2)c1` [Compound 1-5, 6-(3-methoxyphenyl)-2-(pyridin-2-yl)-[1,2,4]triazolo[4,3-a]pyridin-3(2H)-one], 100 to 1000 nM.
Take `O=c1n(-c2ncccn2)nc2ccc(-c3cccc(N4CCC4)c3)cn12` [Compound 1-6, 6-(3-(azetidin-1-yl)phenyl)-2-(pyrimidin-2-yl)-[1,2,4]triazolo[4,3-a]pyridin-3(2H)-one]: the IC50 fell in the range of 100 to 1000 nM.
With `COc1cccc(-c2ccc3nn(-c4ncccn4)c(=O)n3c2)c1` [Compound 1-7, 6-(3-methoxyphenyl)-2-(pyrimidin-2-yl)-[1,2,4]triazolo[4,3-a]pyridin-3(2H)-one] the figure was 1000 to 10000 nM; with `COc1cccc(C2CCc3nn(-c4ccccn4)c(=O)n3C2)c1` (stereo not shown) [Compound 1-8, 6-(3-methoxyphenyl)-2-(pyridin-2-yl)-5,6,7,8-tetrahydro-[1,2,4]triazolo[4,3-a]pyridin-3(2H)-one], 1000 to 10000 nM.
As for `COc1cccc(-c2ccc3nn(-c4ccccn4)c(=O)n3c2)c1C` [Compound 1-9, 6-(3-methoxy-2-methylphenyl)-2-(pyridin-2-yl)-[1,2,4]triazolo[4,3-a]pyridin-3(2H)-one], the figure is below 100 nM; as for `COc1cccc(C2CCc3nn(-c4ccccn4)c(=O)n3C2)c1C` (stereo not shown) [Compound 1-10, 6-(3-methoxy-2-methylphenyl)-2-(pyridin-2-yl)-5,6,7,8-tetrahydro-[1,2,4]triazolo[4,3-a]pyridin-3(2H)-one], 100 to 1000 nM; as for `COc1cccc(-c2ccc3nn(-c4ncccn4)c(=O)n3c2)c1C` [Compound 1-11, 6-(3-methoxy-2-methylphenyl)-2-(pyrimidin-2-yl)-[1,2,4]triazolo[4,3-a]pyridin-3(2H)-one], 100 to 1000 nM.
`O=c1n(-c2ncccn2)nc2ccc(-c3cccc(OC4CC4)c3)cn12` [Compound 1-12, 6-(3-cyclopropoxyphenyl)-2-(pyrimidin-2-yl)-[1,2,4]triazolo[4,3-a]pyridin-3(2H)-one]: the IC50 is 100 to 1000 nM.
With `O=c1n(-c2ccccn2)nc2ccc(-c3cccc(OC4CC4)c3)cn12` [Compound 1-13, 6-(3-cyclopropoxyphenyl)-2-(pyridin-2-yl)-[1,2,4]triazolo[4,3-a]pyridin-3(2H)-one] the figure was 100 to 1000 nM.
Regarding `O=c1n(-c2ccccn2)nc2n1CC(c1cccc(OC3CC3)c1)CC2` (stereo not shown) [Compound 1-14, 6-(3-cyclopropoxyphenyl)-2-(pyridin-2-yl)-5,6,7,8-tetrahydro-[1,2,4]triazolo[4,3-a]pyridin-3(2H)-one], the IC50 lay within 100 to 1000 nM.
As for `COc1ccc(-c2ccc3nn(-c4ccccn4)c(=O)n3c2)cc1` [Compound 1-15, 6-(4-methoxyphenyl)-2-(pyridin-2-yl)-[1,2,4]triazolo[4,3-a]pyridin-3(2H)-one], the IC50 lay within 1000 to 10000 nM.
With `COc1ccc(C2CCc3nn(-c4ccccn4)c(=O)n3C2)cc1` (stereo not shown) [Compound 1-16, 6-(4-methoxyphenyl)-2-(pyridin-2-yl)-5,6,7,8-tetrahydro-[1,2,4]triazolo[4,3-a]pyridin-3(2H)-one] the figure was 1000 to 10000 nM; with `COc1ccccc1-c1ccc2nn(-c3ccccn3)c(=O)n2c1` [Compound 1-19, 6-(2-methoxyphenyl)-2-(pyridin-2-yl)-[1,2,4]triazolo[4,3-a]pyridin-3(2H)-one], 1000 to 10000 nM.
With `COc1ccc(-c2ccc3nn(-c4ccccn4)c(=O)n3c2)c(C)c1` [Compound 1-20, 6-(4-methoxy-2-methylphenyl)-2-(pyridin-2-yl)-[1,2,4]triazolo[4,3-a]pyridin-3(2H)-one] the figure was 100 to 1000 nM; with `COc1ccc(-c2ccc3nn(-c4ncccn4)c(=O)n3c2)c(C)c1` [Compound 1-21, 6-(4-methoxy-2-methylphenyl)-2-(pyrimidin-2-yl)-[1,2,4]triazolo[4,3-a]pyridin-3(2H)-one], 1000 to 10000 nM.
As for `COc1ccc(C2CCc3nn(-c4ccccn4)c(=O)n3C2)c(C)c1` (stereo not shown) [Compound 1-22, 6-(4-methoxy-2-methylphenyl)-2-(pyridin-2-yl)-5,6,7,8-tetrahydro-[1,2,4]triazolo[4,3-a]pyridin-3(2H)-one], the IC50 is 100 to 1000 nM.
